This is an account of results in patent US20120165334A1, “Indole/Benzimidazole Compounds as mTOR Kinase Inhibitors” (AMGEN INC., priority 2009, published 2012).

In one assay the target is T1, mTOR (Homo sapiens, UniProt P42345).
T1 construct: 2.5 μl of 0.6 μg/ml of mTOR Enzyme (Amgen) was added to rows 1-23
Nature of the assay: mTOR LanthaScreen (TR-FRET, phosphorylation of 4EBP1). In kind it is biochemical. The conditions noted are these: read-out: AA11016+++mTor_MA_IC50_IP. As for the experimental part: The mTOR LanthaScreen is a TR-FRET assay measuring the phosphorylation of mTOR's substrate 4EBP1. 384 well compound plates were prepared containing 1 μl of compound per well starting at 5 mM and diluted 1:2 across the row, resulting in a 22 well serial dilution.
The assay was conducted on the PerkinElmer® FlexDrop PLUS. A 5 μl mix of 800 nM GFP-4E-BP1 (Invitrogen, PV4759) and 20 μM ATP (Amgen) was added to rows 1-24. 2.5 μl of 0.6 μg/ml of mTOR Enzyme (Amgen) was added to rows 1-23. 2.5 μl of assay buffer was added to row 24 for the low control. […] The final concentrations in the assay reagents were 400 nM GFP-4E-BP1, 10 μM of ATP and 0.15 μg/ml of mTOR enzyme. The compound, enzyme, and substrate incubate for 90 minutes.
(Time-resolved FRET reads energy transfer from a long-lived donor to a nearby acceptor.)

Assay [1] has as its system phosphorylation of Akt at Serine 473. The experiment in a line: pAkt AlphaScreen in U87 MG cells. To be noted: read-out: AA11809+++pAKT_U87_IC50_IP. In kind it is cell-based. The method, then: The pAkt AlphaScreen assay determines whether there is phosphorylation of Akt at Serine 473 by recruitment of a phosphospecific antibody. This assay was performed using U87 MG cells. […] The cells were maintained weekly using 0.05% Trypsin (Gibco, 25300-054) and replated in 150 mm TC—Treated Culture Dishes (Corning, 430599).
The first day of the assay, the adherent cells were trypsinized, media was added to the loose cells and cells were mixed to a homogenous mixture. 0.5 ml of the homogenous mixture was counted on the Beckman Coulter® Vi-CELL™ XR. 50 frames of cells were counted and the number of viable cells was determined. The cells were then diluted to 0.25 million cells per ml, and centrifuged at 200 rcf for 5 minutes. The media was removed and the cells were reconstituted in fresh media for plating. The cells were plated at 20 μl per well on the PerkinElmer® FlexDrop PLUS in Low Volume 384 Well White Tissue Culture Plates (Corning, 3826) with a final cell density of 5K cells per well. The plates were incubated overnight at 37° Celsius, 5% CO2.
On the second day, the compound plates were prepared, the cells were treated with compound and the pAkt reaction mix was added to the cell lysate. 384 well compound plates were prepared by Amgen's Sample Bank containing […] of compound per well starting at 5 mM and diluted 1:2 across the row, resulting in a 22 well serial dilution. 39 μl of growth media was added to the compound plate in rows 1-22 using the PerkinElmer® FlexDrop PLUS resulting in a DMSO concentration of 2.5%. The control columns were added manually; 40 μl of 2.5% DMSO (Sigma, D4540-100 ml) in growth media was added to the plate for the high control and 40 μl of 50 μM of AMG2203766 with 2.5% DMSO was added to the plate as the low control. The cell plates and diluted compound plates were put onto the VELOCITY1 1™ VPREP™ 384 ST where the compound plate was mixed and 5 μl of serially diluted compound or controls was added to the cell plate. […] The cell plates were then incubated with compound for two hours at 37° Celsius, 5% CO2. After two hours, the media in the cell plates was aspirated using the BioTek® ELx405HT plate washer removing the majority of media and compound without disturbing the adherent U87 cells. The following assay reagents are components of the SureFire Akt (Ser 473) Phosphorylation 50K Point Kit (TGR BioSciences, TGRAS50K) and an IgG Detection Kit (PerkinElmer, 6760617R). […] The plates were then incubated at room temperature on a shaker for ten minutes. The AlphaScreen reaction was prepared under low light conditions (subdued or green light) including p-Akt (Ser 473) Reaction Buffer, Dilution Buffer, Activation Buffer, Acceptor Beads and Donor Beads at a ratio of 40:20:10:1:1 respectively. The AlphaScreen reaction was added to the cell lysate at 6 μl per well using the PerkinElmer® FlexDrop PLUS. The plates were placed in a humid environment to reduce edge effects and incubated overnight at room temperature with restricted air flow in the dark.
On the final day of the experiment, the plates were read on the PerkinElmer® EnVision™ 2103 Multilable Reader using the standard AlphaScreen readout. The POC is calculated and the data is analyzed to report the IC50 IP for pAkt at Serine 473.
For orientation: In Alpha technology, singlet oxygen from a donor bead excites a nearby acceptor bead.

Another assay addresses PI3Ka (Homo sapiens, UniProt P42336). Nature of the assay: PI3Ka Alpha assay. In kind it is biochemical. The conditions noted are these: the values are: IC50.
Where [2] appears, read: Homo sapiens, U-87 MG, 2 h, U87 MG cells, two hours with compound.
Setting [3] is: U87 MG cells, two hours with compound.

Read-outs that look alike come from different tables or passages of the source.

PI3Ka, sequence (P42336 whole entry): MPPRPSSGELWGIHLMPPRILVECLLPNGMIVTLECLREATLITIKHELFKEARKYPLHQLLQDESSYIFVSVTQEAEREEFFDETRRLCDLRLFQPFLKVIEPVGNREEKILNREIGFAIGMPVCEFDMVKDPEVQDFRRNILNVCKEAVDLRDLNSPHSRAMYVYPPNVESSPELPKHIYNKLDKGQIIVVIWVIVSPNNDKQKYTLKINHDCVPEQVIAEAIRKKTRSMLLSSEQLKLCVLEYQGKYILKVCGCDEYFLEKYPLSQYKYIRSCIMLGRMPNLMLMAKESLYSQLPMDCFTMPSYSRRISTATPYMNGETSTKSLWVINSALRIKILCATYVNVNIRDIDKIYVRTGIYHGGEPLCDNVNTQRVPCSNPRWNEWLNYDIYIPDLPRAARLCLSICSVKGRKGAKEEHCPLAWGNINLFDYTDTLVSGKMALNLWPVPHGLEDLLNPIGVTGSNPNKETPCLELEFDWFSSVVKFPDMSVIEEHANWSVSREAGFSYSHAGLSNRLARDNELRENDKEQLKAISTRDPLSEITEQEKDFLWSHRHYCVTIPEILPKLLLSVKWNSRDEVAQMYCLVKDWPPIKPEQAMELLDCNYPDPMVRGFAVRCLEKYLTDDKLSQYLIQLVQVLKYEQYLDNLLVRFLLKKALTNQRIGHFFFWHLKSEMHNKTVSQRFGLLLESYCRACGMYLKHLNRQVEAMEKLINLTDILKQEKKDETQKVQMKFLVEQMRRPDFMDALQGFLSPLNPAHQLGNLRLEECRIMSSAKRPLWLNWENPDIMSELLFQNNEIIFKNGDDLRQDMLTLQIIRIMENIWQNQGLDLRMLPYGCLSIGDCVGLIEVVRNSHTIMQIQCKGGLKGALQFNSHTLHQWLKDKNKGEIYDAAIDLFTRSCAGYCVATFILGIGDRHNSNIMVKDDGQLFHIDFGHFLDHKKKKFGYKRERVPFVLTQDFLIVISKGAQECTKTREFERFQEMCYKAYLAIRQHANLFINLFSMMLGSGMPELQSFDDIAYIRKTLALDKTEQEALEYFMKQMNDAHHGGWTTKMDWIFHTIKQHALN
PI3Ka, sequence (P27986 whole entry partner): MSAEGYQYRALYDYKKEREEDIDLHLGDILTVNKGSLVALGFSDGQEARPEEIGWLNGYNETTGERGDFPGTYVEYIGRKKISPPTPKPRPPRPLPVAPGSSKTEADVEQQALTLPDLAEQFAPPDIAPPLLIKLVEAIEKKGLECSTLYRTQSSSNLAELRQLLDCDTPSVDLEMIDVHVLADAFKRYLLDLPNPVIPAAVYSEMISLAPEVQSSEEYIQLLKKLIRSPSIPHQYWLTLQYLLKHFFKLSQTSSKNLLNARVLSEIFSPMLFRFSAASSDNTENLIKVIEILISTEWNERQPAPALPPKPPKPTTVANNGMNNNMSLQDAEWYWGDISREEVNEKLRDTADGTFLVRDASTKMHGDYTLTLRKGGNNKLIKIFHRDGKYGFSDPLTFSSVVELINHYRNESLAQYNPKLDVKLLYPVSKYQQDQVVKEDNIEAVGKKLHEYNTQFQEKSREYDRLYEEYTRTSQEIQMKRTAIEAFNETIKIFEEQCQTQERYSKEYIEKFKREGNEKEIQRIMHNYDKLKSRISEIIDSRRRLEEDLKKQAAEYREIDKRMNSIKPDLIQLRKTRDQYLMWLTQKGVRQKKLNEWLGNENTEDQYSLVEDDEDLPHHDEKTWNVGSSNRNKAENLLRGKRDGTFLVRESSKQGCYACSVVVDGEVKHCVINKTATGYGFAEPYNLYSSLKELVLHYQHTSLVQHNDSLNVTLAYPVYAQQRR

With `Cc1nc(N)nc(-n2c(Nc3cccc(O)c3)nc3ccc(C(=O)O)cc32)n1` [Cpd 2, 1-(4-amino-6-methyl-1,3,5-triazin-2-yl)-2-((3-hydroxyphenyl)amino)-1H-benzimidazole-6-carboxylic acid], the IC50 on mTOR was found to be 0.00138 µM; in assay [1] (setting [2]) it was 0.224 µM.

As for `Cc1nc(N)nc(-n2c(Nc3ccn[nH]3)nc3cc(F)c(F)cc32)n1` [Cpd 9, 1-(4-amino-6-methyl-1,3,5-triazin-2-yl)-5,6-difluoro-N-1H-pyrazol-5-yl-1H-benzimidazol-2-amine], the AA12047+++PI3Ka Alpha IC50 IP at PI3Ka came out at 0.485 µM. In addition, the IC50 at mTOR worked out at 0.0243 µM; in assay [1] (Homo sapiens, U-87 MG, 2 h), 0.0446 µM.

In the case of `CNc1nc(C)nc(-n2c(Nc3cc[nH]n3)nc3cc(C)c(C)cc32)n1` [Cpd 138], the AA12047+++PI3Ka Alpha IC50 IP on PI3Ka was 1.39 µM. For the same molecule, the values for the IC50 (on mTOR; in assay [1] (setting [2])) were 0.0387 µM and 0.158 µM, respectively.

As to `Cc1nc(N)nc(-n2c(Nc3cc(O)cc(O)c3)nc3ccccc32)n1` [Cpd 1, 5-((1-(4-amino-6-methyl-1,3,5-triazin-2-yl)-1H-benzimidazol-2-yl)amino)-1,3-benzenediol], on PI3Ka, the AA12047+++PI3Ka Alpha IC50 IP turned out to be 0.000646 µM. Further, the IC50 was determined as 0.000269 µM at mTOR and 0.00496 µM in assay [1] (Homo sapiens, U-87 MG, 2 h).

In turn, `Cc1nc(N)nc(-n2c(Nc3ccc(NC(=O)Nc4ccncc4)cc3)nc3ccccc32)n1` [Cpd 115] showed an AA12047+++PI3Ka Alpha IC50 IP on PI3Ka of 0.00731 µM. Further, the IC50 at mTOR was 0.0044 µM; in assay [1] (setting [2]), 0.132 µM.

Take “3-((4-methyl-6-(2-(1H-pyrazol-3-ylamino)-1H-benzimidazol-1-yl)-1,3,5-triazin-2-yl)amino)propanenitrile [Cpd 141]”: the IC50 in assay [1] (setting [3]) was 0.203 µM.

As for `Cc1nc(N)nc(-n2c(Nc3cnn(C(=O)N4CCOCC4)c3)nc3ccccc32)n1` [Cpd 201], the AA12047+++PI3Ka Alpha IC50 IP at PI3Ka came out at 3.52 µM. Moreover, in assay [1] (setting [2]), the IC50 turned out to be 0.652 µM.

At PI3Ka, “1-(4-methyl-6-((2-(4-morpholinyl)ethyl)amino)-1,3,5-triazin-2-yl)-N-1H-pyrazol-3-yl-1H-benzimidazol-2-amine [Cpd 156]” registered an AA12047+++PI3Ka Alpha IC50 IP of 0.0146 µM. Further, the IC50 is 0.183 µM at mTOR and 0.0547 µM in assay [1] (setting [3]).

Consider “1-(4-((1-(4-amino-6-methyl-1,3,5-triazin-2-yl)-1H-benzimidazol-2-yl)amino)phenyl)-3-(3,5-dichlorophenyl)thiourea [Cpd 108]”, for which, at PI3Ka, the AA12047+++PI3Ka Alpha IC50 IP was found to be 0.47 µM. The IC50 came to 2.29 µM on mTOR and 1.07 µM in assay [1] (setting [3]).

In turn, “1-(4-((cyclopropylmethyl)amino)-6-methyl-1,3,5-triazin-2-yl)-N-1H-pyrazol-3-yl-1H-benzimidazol-2-amine [Cpd 170]” registered an AA12047+++PI3Ka Alpha IC50 IP on PI3Ka of 1.37 µM. Further, the IC50 is 1.17 µM on mTOR and 1.68 µM in assay [1] (setting [3]).

Consider “1-(4-amino-6-methyl-1,3,5-triazin-2-yl)-N-1H-pyrazol-5-yl-5-(4-pyridinyl)-1H-benzimidazol-2-amine [Cpd 144]”, for which the AA12047+++PI3Ka Alpha IC50 IP on PI3Ka turned out to be 7.25 µM. Moreover, the IC50 at mTOR was found to be 0.0666 µM; in assay [1] (setting [3]), 0.125 µM.

Molecule `CNC(=O)Nc1ccc(Nc2nc3ccccc3n2-c2nc(C)nc(NCC#N)n2)cc1` [Cpd 111] returned an AA12047+++PI3Ka Alpha IC50 IP on PI3Ka of 0.0528 µM. Moreover, the results for the IC50 (at mTOR; in assay [1] (setting [2])) were 0.000765 µM and 0.0699 µM, respectively.

For “1-(4-amino-6-methyl-1,3,5-triazin-2-yl)-N-(6-methoxy-3-pyridinyl)-1H-benzimidazol-2-amine [Cpd 151]”, on PI3Ka, the AA12047+++PI3Ka Alpha IC50 IP is 4.55 µM. The IC50 at mTOR is 0.124 µM; in assay [1] (setting [3]) it was 0.0889 µM.

In the case of “4-((1-(4-amino-6-methyl-1,3,5-triazin-2-yl)-1H-benzimidazol-2-yl)amino)-N-4-pyridinylbenzamide [Cpd 157]”, the AA12047+++PI3Ka Alpha IC50 IP on PI3Ka is 31.8 µM. Besides, the IC50 at mTOR turned out to be 0.194 µM; in assay [1] (setting [3]), 0.767 µM.

“1-(4-amino-6-methyl-1,3,5-triazin-2-yl)-N-cyclopropyl-1H-benzimidazol-2-amine [Cpd 61]” displayed an AA12047+++PI3Ka Alpha IC50 IP at PI3Ka of 3.83 µM. The IC50 at mTOR came to 10.8 µM; in assay [1] (setting [3]), 1.04 µM.

In turn, “1-(4-amino-6-methyl-1,3,5-triazin-2-yl)-N-(1-(4-morpholinylcarbonyl)-1H-pyrazol-4-yl)-1H-benzimidazol-2-amine [Cpd 198]” displayed an AA12047+++PI3Ka Alpha IC50 IP on PI3Ka of 2.55 µM.
